What all share (type): biochemical
For experiment [1], the target named is T1, phosphorylated VEGF-R2Δ50 (FLVK-P) (Homo sapiens, UniProt P35968, DEL940-989/E990V).
T1 construct: VEGF-R2Δ50 contains residues 806-939 and 990-1171; made in house; host or cells: baculovirus/insect cells
The experiment can be described thus: VEGF-R2 coupled spectrophotometric (FLVK-P) assay. The following applies: read-out: VEGF % inhibition at 20 μM, 20 μM; combinatorial library compounds. The procedure, abridged:
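Baculovirus-expressed human VEGF-R2Δ50 (residues 806-939/990-1171, E990V) was autophosphorylated with 3 mM ATP, 40 mM MgCl2 for 2 h at 4° C. ADP formation was coupled via PK/LDH to NADH oxidation, read at 340 nm, with 5.1 mM poly(E4Y1), 1 mM ATP, 25 mM MgCl2, Hepes pH 7.5. Ki came from activity across compound concentrations.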

In the next experiment the target is T2, FL-CHK1 (Homo sapiens, UniProt O14757).
T2 construct: C-terminally His-tagged full-length human CHK1 (FL-CHK1); 6xHis (C); made in house; host or cells: baculovirus/insect cells
T2 sequence (O14757 1-476): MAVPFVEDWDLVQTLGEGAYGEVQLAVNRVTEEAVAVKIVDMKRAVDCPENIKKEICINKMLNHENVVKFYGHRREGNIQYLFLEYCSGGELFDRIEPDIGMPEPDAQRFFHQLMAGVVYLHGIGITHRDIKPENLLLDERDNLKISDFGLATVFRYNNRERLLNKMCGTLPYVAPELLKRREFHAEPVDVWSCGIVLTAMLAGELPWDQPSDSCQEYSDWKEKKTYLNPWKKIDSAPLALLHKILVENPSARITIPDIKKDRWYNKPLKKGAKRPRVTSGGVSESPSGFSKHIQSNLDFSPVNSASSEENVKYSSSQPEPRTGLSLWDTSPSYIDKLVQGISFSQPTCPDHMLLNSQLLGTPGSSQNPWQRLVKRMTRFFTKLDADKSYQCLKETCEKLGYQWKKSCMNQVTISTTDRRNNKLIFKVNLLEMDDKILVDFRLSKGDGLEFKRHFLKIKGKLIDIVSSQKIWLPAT
The experiment can be described thus: CHK1 assay. The following applies: 20 μM; combinatorial library compounds. The procedure, abridged: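 Full-length human CHK1 with C-terminal 6×His tag, made in baculovirus/insect cells, 10 nM, phosphorylating 0.125 mM Syntide-2 with 0.15 mM ATP in 50 mM Tris pH 7.5, 25 mM MgCl2, 400 mM NaCl. PK/LDH-coupled NADH oxidation read at 340 nm. Ki from initial rates over varied compound concentrations.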

The target in a further experiment is CDK2/Cyclin A complex (Homo sapiens, UniProt P24941). The experiment can be described thus: CDK2/Cyclin A assay. The following applies: 1.0 μM; combinatorial library compounds. The procedure, abridged: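 Radiometric assay: 150 nM CDK2/cyclin A (insect-cell CDK2, truncated cyclin A) phosphorylates His-tagged Rb fragment (residues 386-928) with 25 μM ATP plus [32P]ATP, pH 7.4 HEPES, 2% DMSO, 30 °C for 20 min. Filter-captured product counted by phosphorimager; apparent Ki from competitive or tight-binding inhibition fits.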

The target in the next experiment is T3, CDK4/Cyclin D3 complex (Homo sapiens, UniProt P11802).
T3 construct: made in house; host or cells: insect cells co-infected with baculovirus vectors
T3 sequence (P11802 whole entry): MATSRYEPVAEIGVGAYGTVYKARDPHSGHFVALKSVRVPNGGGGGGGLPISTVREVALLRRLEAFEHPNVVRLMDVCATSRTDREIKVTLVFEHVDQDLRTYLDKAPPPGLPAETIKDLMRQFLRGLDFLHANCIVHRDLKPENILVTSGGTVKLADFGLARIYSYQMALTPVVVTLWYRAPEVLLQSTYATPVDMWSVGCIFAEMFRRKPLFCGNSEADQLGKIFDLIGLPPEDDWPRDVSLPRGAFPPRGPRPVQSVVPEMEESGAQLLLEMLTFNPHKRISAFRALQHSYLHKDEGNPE
T3 sequence (P30281 whole entry partner): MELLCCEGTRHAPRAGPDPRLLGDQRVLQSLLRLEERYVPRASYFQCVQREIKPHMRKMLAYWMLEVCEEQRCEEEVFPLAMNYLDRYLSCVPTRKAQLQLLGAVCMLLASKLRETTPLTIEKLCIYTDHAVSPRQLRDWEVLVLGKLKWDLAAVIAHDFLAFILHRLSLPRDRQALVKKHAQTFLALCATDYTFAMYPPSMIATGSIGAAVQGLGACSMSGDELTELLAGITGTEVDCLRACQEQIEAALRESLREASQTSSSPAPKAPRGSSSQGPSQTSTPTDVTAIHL
Nature of the experiment: CDK4/Cyclin D assay. The note with it: 1.0 μM; combinatorial library compounds. The protocol:
CDK4/Cyclin D Construct for Assay: A complex of human CDK4 and cyclin D3, or a complex of cyclin DI and a fusion protein of human CDK4 and glutathione-S-transferase (GST-CDK4), was purified using traditional biochemical chromatographic techniques from insect cells that had been co-infected with the corresponding baculovirus expression vectors.
CDK2/Cyclin A and CDK4/Cyclin D Assays
Cyclin-dependent kinase activity was measured by quantifying the enzyme-catalyzed, time-dependent incorporation of radioactive phosphate from [^32P]ATP into a recombinant fragment of the retinoblastoma protein. Unless noted otherwise, assays were performed in 96-well plates in a total volume of 50 μL, in the presence of 10 mM HEPES (N-[2-hydroxyethyl]piperazine-N′-[2-ethanesulfonic acid]) (pH 7.4), 10 mM MgCl2, 25 μM adenosine triphosphate (ATP), 1 mg/mL ovalbumin, 5 μg/mL leupeptin, 1 mM dithiothreitol, 10 mM β-glycerophosphate, 0.1 mM sodium vanadate, 1 mM sodium fluoride, 2.5 mM ethylene glycol-bis(β-aminoethyl ether)-N,N,N′N′-tetraacetic acid (EGTA), 2% (v/v) dimethylsulfoxide, and 0.03-0.2 μCi [^32P]ATP. The substrate (0.3-0.5 μg) was purified recombinant retinoblastoma protein fragment (Rb) (residues 386-928 of the native retinoblastoma protein; 62.3 kDa, containing the majority of the phosphorylation sites found in the native 106-kDa protein, as well as a tag of six histidine residues for ease of purification). Reactions were initiated with CDK2 (150 nM CDK2/Cyclin A complex) or CDK4 (50 nM CDK4/Cyclin D3 complex), incubated at 30° C., and terminated after 20 minutes by the addition of ethylenediaminetetraacetic acid EDTA) to 250 mM. The phosphorylated substrate was then captured on a nitrocellulose membrane using a 96-well filtration manifold, and unincorporated radioactivity was removed by repeated washing with 0.85% phosphoric acid. Radioactivity was quantified by exposing the dried nitrocellulose membranes to a phosphorimager. Apparent Ki values were measured by assaying enzyme activity in the presence of different compound concentrations and subtracting the background radioactivity measured in the absence of enzyme. The kinetic parameters (kcat, Km for ATP) were measured for each enzyme under the usual assay conditions by determining the dependence of initial rates on ATP concentration. The data were fit to an equation for competitive inhibition using Kaleidagraph (Synergy Software), or were fit to an equation for competitive tight-binding inhibition using the software KineTic (BioKin, Ltd.). Measured Ki values for known inhibitors against CDK4 and CDK2 agreed with published IC50 values. The specific activity of CDK4 was the same whether complexed to full-length cyclin D3 or the truncated Cyclin D3 construct; both complexes also yielded very similar Ki values for selected inhibitors.

T1 sequence (P35968 with tags, fused parts or gaps DEL940-989/E990V limits assumed): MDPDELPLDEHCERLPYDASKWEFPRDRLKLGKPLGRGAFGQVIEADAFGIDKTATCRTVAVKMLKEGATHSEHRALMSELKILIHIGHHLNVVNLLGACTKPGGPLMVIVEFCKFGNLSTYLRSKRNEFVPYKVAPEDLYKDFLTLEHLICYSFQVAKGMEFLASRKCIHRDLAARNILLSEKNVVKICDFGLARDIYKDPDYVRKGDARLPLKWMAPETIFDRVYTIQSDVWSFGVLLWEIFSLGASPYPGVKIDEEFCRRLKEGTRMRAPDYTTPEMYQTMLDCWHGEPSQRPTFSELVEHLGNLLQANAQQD

Turning to `Nc1nc(Nc2ccc(S(N)(=O)=O)cc2)sc1-c1nc(-c2ccc3oc4ccccc4c3c2)cs1`, the values for the inhibition at 20 µM (in experiment [1]; on FL-CHK1) were 18% and 18.3%, respectively. Besides, the inhibition at 1 µM was found to be 45.7% at CDK2/Cyclin A complex and 57.5% at CDK4/Cyclin D3 complex.
For the molecule `Cc1c(C)c(C)c(-c2csc(-c3sc(Nc4ccc(N(C)C)cc4)nc3N)n2)c(C)c1C`, the inhibition at 20 µM was 33% in experiment [1] and 37% on FL-CHK1. The values for the inhibition at 1 µM at CDK2/Cyclin A complex and at CDK4/Cyclin D3 complex were 33.9% and 62.7%, respectively.
In the case of `Cc1ccc(-c2csc(-c3sc(Nc4ccc(N(C)C)cc4)nc3N)n2)cc1`, the inhibition at 20 µM turned out to be 16% in experiment [1] and 15.2% at FL-CHK1. Moreover, the results for the inhibition at 1 µM on CDK2/Cyclin A complex and at CDK4/Cyclin D3 complex were 17.7% and 61.6%, respectively.
The like results for `CN(C)c1ccc(Nc2nc(N)c(-c3nc(-c4ccc(Cl)cc4Cl)cs3)s2)cc1` were, in that order, 19%, 26.9%, 17.3% and 76.1%.
The like results for `Nc1nc(Nc2ccc(S(N)(=O)=O)cc2)sc1-c1nc(-c2ccc3c(c2)OCCO3)cs1` were, in that order, 29%, 20.1%, 21.4% and 31.8%.
As for `Cc1c(-c2csc(-c3sc(Nc4ccc(C(C)C)cc4)nc3N)n2)sc2ccc(Cl)cc12` [drawing 487], the inhibition at 20 µM in experiment [1] amounted to 47%; on FL-CHK1, 32.3%. Also, the inhibition at 1 µM was determined as 38.6% on CDK2/Cyclin A complex and 79.6% at CDK4/Cyclin D3 complex.
In the case of `Cc1cc(-c2csc(-c3sc(Nc4ccc(N(C)C)cc4)nc3N)n2)cc(C)c1O`, the inhibition at 20 µM is 24% in experiment [1] and 27.2% on FL-CHK1. Moreover, the inhibition at 1 µM at CDK2/Cyclin A complex turned out to be 29.8%; at CDK4/Cyclin D3 complex it was 52.4%.
Regarding `CC(C)c1ccc(Nc2nc(N)c(-c3nc(-c4cc(-c5ccc(Cl)c(Cl)c5)no4)cs3)s2)cc1`, the inhibition at 20 µM in experiment [1] is -5%; at FL-CHK1 it was -9%. In addition, the inhibition at 1 µM at CDK2/Cyclin A complex is 18.5%; at CDK4/Cyclin D3 complex, -26.5%.
In the case of `COc1ccc2nc(-c3ccccc3)c(-c3csc(-c4sc(Nc5ccc(S(N)(=O)=O)cc5)nc4N)n3)cc2c1`, the inhibition at 20 µM was determined as 3% in experiment [1] and 9.7% on FL-CHK1. Besides, the inhibition at 1 µM is 61.4% at CDK2/Cyclin A complex and 53.4% at CDK4/Cyclin D3 complex.
In the case of `COc1cccc(-c2csc(-c3sc(Nc4ccc(N(C)C)cc4)nc3N)n2)c1`, the inhibition at 20 µM turned out to be 10% in experiment [1] and 7.8% at FL-CHK1. The inhibition at 1 µM on CDK2/Cyclin A complex was 16.3%; on CDK4/Cyclin D3 complex it was -20.3%.
For the molecule `CN(C)c1ccc(Nc2nc(N)c(-c3nc(-c4ccc(C(F)(F)F)cc4)cs3)s2)cc1`, the values for the inhibition at 20 µM (in experiment [1]; on FL-CHK1) were 5% and 13.1%, respectively. The inhibition at 1 µM on CDK2/Cyclin A complex worked out at 33.4%; on CDK4/Cyclin D3 complex, 60.3%.
Consider `Cc1c(-c2csc(-c3sc(Nc4ccc(C(C)C)cc4)nc3N)n2)sc2ccccc12`, for which the inhibition at 20 µM in experiment [1] is 5%; at FL-CHK1 it was -4.7%. The inhibition at 1 µM on CDK2/Cyclin A complex amounted to 4%; on CDK4/Cyclin D3 complex, 2.4%.
Regarding `CC(C)c1ccc(Nc2nc(N)c(-c3nc(-c4cc(C(C)(C)C)c(O)c(C(C)(C)C)c4)cs3)s2)cc1`, the inhibition at 20 µM in experiment [1] was -6%; at FL-CHK1, 7.9%. In addition, the inhibition at 1 µM on CDK2/Cyclin A complex worked out at 20.9%; at CDK4/Cyclin D3 complex it was 46.8%.
Turning to `Nc1nc(Nc2ccc(S(N)(=O)=O)cc2)sc1-c1nc(-c2ccc(Cl)cc2)cs1`, the inhibition at 20 µM came out at 27% in experiment [1] and 4.4% on FL-CHK1. For the same molecule, the inhibition at 1 µM on CDK2/Cyclin A complex stood at 18.5%; at CDK4/Cyclin D3 complex, 10.9%.
In the case of `Cc1cc(-c2csc(-c3sc(Nc4ccc(N(C)C)cc4)nc3N)n2)c(C)s1`, the inhibition at 20 µM in experiment [1] turned out to be 32%; on FL-CHK1, 43.9%. The inhibition at 1 µM on CDK2/Cyclin A complex worked out at 24%; at CDK4/Cyclin D3 complex, 64.1%.

Usually inhibition stands for the drop in the measured response relative to a control, in per cent.

The values are drawn from patent US6620828B2, “Thiazole compounds and pharmaceutical compositions for inhibiting protein kinases and methods for their use” (Agouron Pharmaceuticals, Inc., priority 1999, dated 2003).
